Data as given in US10323022B2, “Pyrrolidinyl urea, pyrrolidinyl thiourea and pyrrolidinyl guanidine compounds as TrkA kinase inhibitors” (Array BioPharma Inc., priority 2011, dated 2019).

Target: TrkA (Homo sapiens (Human), UniProt P04629)
Assay: TrkA Omnia Assay
Format: biochemical
Details: averaged IC50; 20 nM enzyme, 500 μM ATP, 10 μM peptide substrate
Summary of the method: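 Continuous fluorescent kinase read-out (ex 360 nm, em 485 nm) over 70 min, with initial rates fitted to 4- or 5-parameter logistic curves for IC50. Final conditions: 500 μM ATP, 10 μM Omnia Tyr Peptide #4, 20 nM TrkA, MOPS pH 7.5 buffer with MgCl2 and Triton X-100; enzyme and compound preincubated 10 min at ambient temperature.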

Chain of TrkA (P04629 33-796): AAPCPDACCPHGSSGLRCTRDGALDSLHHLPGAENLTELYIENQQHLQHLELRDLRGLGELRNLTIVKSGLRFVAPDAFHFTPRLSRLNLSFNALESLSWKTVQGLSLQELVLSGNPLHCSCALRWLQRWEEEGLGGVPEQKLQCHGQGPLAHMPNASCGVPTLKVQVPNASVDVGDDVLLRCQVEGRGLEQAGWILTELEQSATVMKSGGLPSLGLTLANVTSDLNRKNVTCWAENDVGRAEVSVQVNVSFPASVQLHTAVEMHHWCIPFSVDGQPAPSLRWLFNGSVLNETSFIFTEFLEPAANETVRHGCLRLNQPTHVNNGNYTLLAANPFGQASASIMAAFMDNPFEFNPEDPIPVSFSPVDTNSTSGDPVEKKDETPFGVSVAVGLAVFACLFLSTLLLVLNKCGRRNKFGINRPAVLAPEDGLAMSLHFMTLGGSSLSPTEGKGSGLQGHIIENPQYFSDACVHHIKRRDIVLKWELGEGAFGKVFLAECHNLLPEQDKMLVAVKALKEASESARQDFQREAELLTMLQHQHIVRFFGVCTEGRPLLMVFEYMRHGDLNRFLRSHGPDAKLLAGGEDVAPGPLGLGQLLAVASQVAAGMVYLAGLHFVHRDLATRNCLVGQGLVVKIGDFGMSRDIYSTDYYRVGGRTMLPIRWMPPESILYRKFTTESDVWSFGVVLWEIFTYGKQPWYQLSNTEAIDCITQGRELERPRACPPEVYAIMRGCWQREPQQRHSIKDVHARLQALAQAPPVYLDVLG

| IC50 [nM] | Structure (SMILES) |
| --- | --- |
| < 100 | COCCN1C[C@@H](NC(=O)Nc2c(Cl)c(C(C)(C)C#N)nn2-c2ccccc2)[C@H](c2ccc(F)c(F)c2)C1 [Example 418, 1-(4-chloro-3-(2-cyanopropan-2-yl)-1-phenyl-1H-pyrazol-5-yl)-3-((3S,4R)-4-(3,4-difluorophenyl)-1-(2-methoxyethyl)pyrrolidin-3-yl)urea] |
| < 100 | COCCN1C[C@@H](NC(=O)Nc2c(Br)c(-c3cnn(C)c3)nn2-c2ccccc2)[C@H](c2cc(F)cc(F)c2)C1 [Example 419, 1-(4-bromo-1′-methyl-1-phenyl-1H,1′H-[3,4′-bipyrazol]-5-yl)-3-((3S,4R)-4-(3,5-difluorophenyl)-1-(2-methoxyethyl)pyrrolidin-3-yl)urea] |
| < 100 | COCCN1C[C@@H](NC(=O)Nc2c(Br)c(-c3cnn(C)c3)nn2-c2ccccc2)[C@H](c2ccc(F)c(F)c2)C1 [Example 420, 1-(4-bromo-1′-methyl-1-phenyl-1H,1′H-[3,4′-bipyrazol]-5-yl)-3-((3S,4R)-4-(3,4-difluorophenyl)-1-(2-methoxyethyl)pyrrolidin-3-yl)urea] |
| < 100 | COCCN1C[C@@H](NC(=O)Nc2c(Br)c(-c3cnn(C)c3)nn2-c2ccccc2)[C@H](c2ccc(F)cc2)C1 [Example 421] |
| < 100 | COCCN1C[C@@H](NC(=O)Nc2c(Cl)c(-c3cnn(C)c3)nn2-c2ccccc2)[C@H](c2cc(F)cc(F)c2)C1 [Example 422, 1-(4-chloro-1′-methyl-1-phenyl-1H,1′H-[3,4′-bipyrazol]-5-yl)-3-((3S,4R)-4-(3,5-difluorophenyl)-1-(2-methoxyethyl)pyrrolidin-3-yl)urea] |
| < 100 | COCCN1C[C@@H](NC(=O)Nc2c(Cl)c(-c3cnn(C)c3)nn2-c2ccccc2)[C@H](c2ccc(F)c(F)c2)C1 [Example 423, 1-(4-chloro-1′-methyl-1-phenyl-1H,1′H-[3,4′-bipyrazol]-5-yl)-3-((3S,4R)-4-(3,4-difluorophenyl)-1-(2-methoxyethyl)pyrrolidin-3-yl)urea] |
| < 100 | COCCN1C[C@@H](NC(=O)Nc2c(Cl)c(-c3cnn(C)c3)nn2-c2ccccc2)[C@H](c2ccc(F)cc2)C1 [Example 424, 1-(4-chloro-1′-methyl-1-phenyl-1H,1′H-[3,4′-bipyrazol]-5-yl)-3-((3S,4R)-4-(4-fluorophenyl)-1-(2-methoxyethyl)pyrrolidin-3-yl)urea] |
| < 100 | COCCN1C[C@@H](NC(=O)Nc2c(Cl)c(-c3cnn(C)c3)nn2-c2ccccc2)[C@H](c2ccccc2)C1 [Example 425, 1-(4-chloro-1′-methyl-1-phenyl-1H,1′H-[3,4′-bipyrazol]-5-yl)-3-((3S,4R)-4-phenyl-1-(2-methoxyethyl)pyrrolidin-3-yl)urea] |
| < 100 | COCCN1C[C@@H](NC(=O)Nc2c(Cl)c(-c3ccccc3)nn2-c2ccccc2)[C@H](c2cc(F)cc(F)c2)C1 [Example 426, 1-(4-chloro-1,3-diphenyl-1H-pyrazol-5-yl)-3-((3S,4R)-4-(3,5-difluorophenyl)-1-(2-methoxyethyl)pyrrolidin-3-yl)urea] |
| < 100 | COCCN1C[C@@H](NC(=O)Nc2c(Br)c(-c3ccccc3)nn2-c2ccccc2)[C@H](c2cc(F)cc(F)c2)C1 [Example 427, 1-(4-bromo-1,3-diphenyl-1H-pyrazol-5-yl)-3-((3S,4R)-4-(3,5-difluorophenyl)-1-(2-methoxyethyl)pyrrolidin-3-yl)urea] |
| < 100 | COCCN1C[C@@H](NC(=O)Nc2c(Br)c(-c3ccccc3)nn2-c2ccccc2)[C@H](c2ccc(F)cc2)C1 [Example 428, 1-(4-bromo-1,3-diphenyl-1H-pyrazol-5-yl)-3-((3S,4R)-4-(4-fluorophenyl)-1-(2-methoxyethyl)pyrrolidin-3-yl)urea] |
| 100 to 1000 | COCCN1C[C@@H](NC(=O)Nc2c(F)c(-c3cnn(C)c3)nn2-c2ccccc2)[C@H](c2cncc(F)c2)C1 [Example 432, 1-(4-fluoro-1′-methyl-1-phenyl-1H,1′H-[3,4′-bipyrazol]-5-yl)-3-((3S,4R)-4-(5-fluoropyridin-3-yl)-1-(2-methoxyethyl)pyrrolidin-3-yl)urea] |
| < 100 | COCCN1C[C@@H](NC(=O)Nc2c(Br)c(C)nn2-c2ccccc2)[C@H](c2cncc(F)c2)C1 [Example 433] |
| < 100 | COCCN1C[C@@H](NC(=O)Nc2c(Cl)c(C)nn2-c2ccccc2)[C@H](c2cncc(F)c2)C1 [Example 434] |
| < 100 | COCCN1C[C@@H](NC(=O)Nc2c(F)c(-c3cnn(C)c3)nn2-c2ccccc2)[C@H](c2ccc(F)c(F)c2)C1 [Example 438, 1-((3S,4R)-4-(3,4-difluorophenyl)-1-(2-methoxyethyl)pyrrolidin-3-yl)-3-(4-fluoro-1′-methyl-1-phenyl-1H,1′H-[3,4′-bipyrazol]-5-yl)urea] |
| < 100 | COCCN1C[C@@H](NC(=O)Nc2c(F)c(-c3cnn(C)c3)nn2-c2ccccc2)[C@H](c2cc(F)cc(F)c2)C1 [Example 439, 1-((3S,4R)-4-(3,5-difluorophenyl)-1-(2-methoxyethyl)pyrrolidin-3-yl)-3-(4-fluoro-1′-methyl-1-phenyl-1H,1′H-[3,4′-bipyrazol]-5-yl)urea] |
| < 100 | COCCN1C[C@@H](NC(=O)Nc2c(Br)c(-c3cnn(C)c3)nn2-c2ccccc2)[C@H](c2cncc(F)c2)C1 [Example 440, 1-(4-bromo-1′-methyl-1-phenyl-1H,1′H-[3,4′-bipyrazol]-5-yl)-3-((3S,4R)-4-(5-fluoropyridin-3-yl)-1-(2-methoxyethyl)pyrrolidin-3-yl)urea] |
| < 100 | COCCN1C[C@@H](NC(=O)Nc2c(C)c(-c3cnn(C)c3)nn2-c2ccccc2)[C@H](c2ccc(F)cc2)C1 [Example 441, 1-(1′,4-dimethyl-1-phenyl-1H, 1′H-[3,4′-bipyrazol]-5-yl)-3-((3S,4R)-4-(4-fluorophenyl)-1-(2-methoxyethyl)pyrrolidin-3-yl)urea] |
| < 100 | COCCN1C[C@@H](NC(=O)Nc2c(C)c(-c3cnn(C)c3)nn2-c2ccccc2)[C@H](c2cc(F)cc(F)c2)C1 [Example 442, 1-(1′,4-dimethyl-1-phenyl-1H, 1′H-[3,4′-bipyrazol]-5-yl)-3-((3S,4R)-4-(3,5-difluorophenyl)-1-(2-methoxyethyl)pyrrolidin-3-yl)urea] |
| < 100 | COCCN1C[C@@H](NC(=O)Nc2c(C)c(-c3cnn(C)c3)nn2-c2ccccc2)[C@H](c2cc(F)c(F)c(F)c2)C1 [Example 443, 1-(1′,4-dimethyl-1-phenyl-1H, 1′H-[3,4′-bipyrazol]-5-yl)-3-((3S,4R)-4-(3,4,5-trifluorophenyl)-1-(2-methoxyethyl)pyrrolidin-3-yl)urea] |
| < 100 | COCCN1C[C@@H](NC(=O)Nc2c(C)c(-c3cnn(Cc4ccc(OC)cc4)c3)nn2-c2ccccc2)[C@H](c2ccc(F)c(F)c2)C1 [Example 446, 1-((3S,4R)-4-(3,4-difluorophenyl)-1-(2-methoxyethyl)pyrrolidin-3-yl)-3-(1′-(4-methoxybenzyl)-4-methyl-1-phenyl-1H, 1′H-[3,4′-bipyrazol]-5-yl)urea] |
| < 100 | COCCN1C[C@@H](NC(=O)Nc2c(C)c(-c3cn[nH]c3)nn2-c2ccccc2)[C@H](c2ccc(F)c(F)c2)C1 [Example 447] |
| < 100 | COCCN1C[C@@H](NC(=O)Nc2c(Cl)c(CCOC(C)=O)nn2-c2ccccc2)[C@H](c2ccc(F)c(F)c2)C1 [Example 448, 2-(4-chloro-5-(3-((3S,4R)-4-(3,4-difluorophenyl)-1-(2-methoxyethyl)pyrrolidin-3-yl)ureido)-1-phenyl-1H-pyrazol-3-yl)ethyl acetate] |
| < 100 | COCCN1C[C@@H](NC(=O)Nc2c(Cl)c(CCO)nn2-c2ccccc2)[C@H](c2ccc(F)c(F)c2)C1 [Example 449, 1-(4-chloro-3-(2-hydroxyethyl)-1-phenyl-1H-pyrazol-5-yl)-3-((3S,4R)-4-(3,4-difluorophenyl)-1-(2-methoxyethyl)pyrrolidin-3-yl)urea] |
| < 100 | COCCN1C[C@@H](NC(=O)Nc2c(C)c([C@H]3C[C@@H](O)C3)nn2-c2ccccc2)[C@H](c2ccc(F)c(F)c2)C1 [Example 450, 1-((3S,4R)-4-(3,4-difluorophenyl)-1-(2-methoxyethyl)pyrrolidin-3-yl)-3-(3-(cis-3-hydroxycyclobutyl)-4-methyl-1-phenyl-1H-pyrazol-5-yl)urea] |
| < 100 | COCCN1C[C@@H](NC(=O)Nc2c(C)c([C@H]3C[C@H](O)C3)nn2-c2ccccc2)[C@H](c2ccc(F)c(F)c2)C1 [Example 451, 1-((3S,4R)-4-(3,4-difluorophenyl)-1-(2-methoxyethyl)pyrrolidin-3-yl)-3-(3-(trans-3-hydroxycyclobutyl)-4-methyl-1-phenyl-1H-pyrazol-5-yl)urea] |
| < 100 | COCCN1C[C@@H](NC(=O)Nc2c(Cl)c([C@H]3C[C@@H](O)C3)nn2-c2ccccc2)[C@H](c2ccc(F)c(F)c2)C1 [Example 452, 1-(4-chloro-3-(cis-3-hydroxvcyclobutyl)-1-phenyl-1H-pyrazol-5-yl)-3-((3S,4R)-4-(3,4-difluorophenyl)-1-(2-methoxyethyl)pyrrolidin-3-yl)urea] |
| < 100 | COCCN1C[C@@H](NC(=O)Nc2c(Cl)c([C@H]3C[C@H](O)C3)nn2-c2ccccc2)[C@H](c2ccc(F)c(F)c2)C1 [Example 453, 1-(4-chloro-3-((1r,3S)-3-hydroxycyclobutyl)-1-phenyl-1H-pyrazol-5-yl)-3-(trans-4-(3,4-difluorophenyl)-1-(2-methoxyethyl)pyrrolidin-3-yl)urea] |
| < 100 | COCCN1C[C@@H](NC(=O)Nc2c(C)c([C@H]3C[C@@H](O)C3)nn2-c2ccccc2)[C@H](c2ccc(F)cc2)C1 [Example 454, 1-((3S,4R)-4-(4-fluorophenyl)-1-(2-methoxyethyl)pyrrolidin-3-yl)-3-(3-(cis-3-hydroxycyclobutyl)-4-methyl-1-phenyl-1H-pyrazol-5-yl)urea] |
